Here are results for 56 compounds from the Kinase Knowledgebase extract (Sharma et al. 2016).

The assay has as its target CDK2 (human) (UniProt P24941). Put plainly: Enzyme Assay.
Take `CC(C)c1cnn2c(NCc3ccccc3S(=O)(=O)N3CCCC3)nc(O[C@@H]3CCCNC3)nc12`: the IC50 fell in the range of 0.05 to 0.5 µM. Under `CC(C)c1cnn2c(NCc3c(F)cccc3-n3cccn3)nc(O[C@@H]3CCCNC3)nc12` stands 0.05 to 0.5 µM; under `CC(C)c1cnn2c(NCc3cccc(Cl)c3Cl)nc(O[C@@H]3CCCNC3)nc12`, 0.05 to 0.5 µM; under `CC(C)c1cnn2c(NCc3ccccc3-c3cccs3)nc([S+]([O-])C3CCNCC3)nc12` (stereo unspecified), 0.05 to 0.5 µM.

Regarding `CC(C)Oc1ccccc1CNc1nc(O[C@@H]2CCCNC2)nc2c(C(C)C)cnn12`, the IC50 lay within 0.05 to 0.5 µM. For `CC(C)c1cnn2c(NCc3ccccc3-n3cncn3)nc([S+]([O-])C3CCNCC3)nc12` (stereo unspecified) the value was 0.05 to 0.5 µM. Under `CC(C)c1cnn2c(NCc3ccccc3-c3nnn(C)n3)nc(O[C@@H]3CCCNC3)nc12` stands not above 0.05 µM; under `CC(C)c1cnn2c(NCc3ccccc3-n3cccn3)nc(NC3CCNC3)nc12` (stereo unspecified), 0.05 to 0.5 µM; under `CC(C)c1cnn2c(NCc3ccccc3-c3nnnn3C)nc(O[C@@H]3CCCNC3)nc12`, 0.05 to 0.5 µM. Under `CC(C)c1cnn2c(NCc3ccccc3C(N)=O)nc(O[C@@H]3CCCNC3)nc12` stands 0.05 to 0.5 µM; under `CC(C)c1cnn2c(NCc3cccc4[nH]ncc34)nc(O[C@@H]3CCCNC3)nc12`, not above 0.05 µM; under `CC(C)c1cnn2c(NCc3ccccc3S(=O)(=O)N3CCN(C)CC3)nc(O[C@@H]3CCCNC3)nc12`, 0.05 to 0.5 µM. Compound `CC(C)c1cnn2c(NCc3ccccc3[S+](C)[O-])nc(O[C@@H]3CCCNC3)nc12` (stereo partly specified) returned an IC50 of 0.05 to 0.5 µM.

In turn, `CC(C)c1cnn2c(NCc3ccccc3-c3cccs3)nc(OC3CCN(C)CC3)nc12` displayed an IC50 of 0.05 to 0.5 µM. `CC(C)c1cnn2c(NCc3ccccc3-n3cccn3)nc([S+]([O-])C3CCNCC3)nc12` (stereo unspecified) gave an IC50 of 0.05 to 0.5 µM. Under `CC(C)c1cnn2c(NCc3ccccc3-c3cccs3)nc(OC3CCNCC3)nc12` stands 0.05 to 0.5 µM; under `CC(C)c1cnn2c(NCc3ccccc3-n3ccnc3)nc(O[C@@H]3CCNC3)nc12`, 0.05 to 0.5 µM. Compound `CC(C)c1cnn2c(NCc3ccccc3Cl)nc(OC3CCN(C)CC3)nc12` displayed an IC50 of 0.05 to 0.5 µM. For `CNS(=O)(=O)c1ccccc1CNc1nc(O[C@@H]2CCCNC2)nc2c(C(C)C)cnn12` the value was 0.05 to 0.5 µM; for `CC(C)c1cnn2c(NCc3cccc(F)c3-n3cccn3)nc(O[C@@H]3CCCNC3)nc12`, not above 0.05 µM; for `CC(C)c1cnn2c(NCc3ccccc3N3CCCC3=O)nc(O[C@@H]3CCCNC3)nc12`, 0.05 to 0.5 µM. For `CC(C)c1cnn2c(NCc3ccccc3OS(=O)C(C)(C)C)nc(O[C@@H]3CCCNC3)nc12` (stereo partly specified) the value was 0.05 to 0.5 µM.

Consider `CC(C)c1cnn2c(NCc3ccccc3-n3cccn3)nc(OC3C=CCNC3)nc12` (stereo unspecified), for which the IC50 fell in the range of 0.05 to 0.5 µM. For `CC(C)c1cnn2c(NCc3ccccc3-n3cncn3)nc(N[C@@H]3CCCNC3)nc12` the value was not above 0.05 µM; for `CC(C)c1cnn2c(NCc3cccc4c3cnn4C)nc(O[C@@H]3CCCNC3)nc12`, not above 0.05 µM. Under `CC(C)c1cnn2c(NCc3ccccc3-n3cccn3)nc(NC3CCCNC3)nc12` (stereo unspecified) stands 0.05 to 0.5 µM; under `CC(C)c1cnn2c(NCc3ccccc3-n3cncn3)nc(O[C@@H]3CCNC3)nc12`, not above 0.05 µM; under `CC(C)c1cnn2c(NCc3ccccc3-c3cccs3)nc(O[C@@H]3CCCNC3)nc12`, not above 0.05 µM. Compound `CC(C)c1cnn2c(NCc3ccccc3-c3ccccn3)nc(O[C@@H]3CCCNC3)nc12` registered an IC50 of 0.05 to 0.5 µM. Under `COc1ccccc1CNc1nc(OC2CCN(C)CC2)nc2c(C(C)C)cnn12` stands 0.05 to 0.5 µM; under `CSc1ccccc1CNc1nc(O[C@@H]2CCCNC2)nc2c(C(C)C)cnn12`, 0.05 to 0.5 µM; under `CC(C)c1cnn2c(NCc3ccccc3S(C)(=O)=O)nc(O[C@@H]3CCCNC3)nc12`, 0.05 to 0.5 µM. In turn, `CC(C)c1cnn2c(NCc3ccccc3-n3cccn3)nc(OC3CCNCC3)nc12` returned an IC50 of 0.05 to 0.5 µM. Under `CC(C)c1cnn2c(NCc3ccccc3-c3cccs3)nc(O[C@@H]3CCNC3)nc12` stands 0.05 to 0.5 µM. For `CC(C)c1cnn2c(NCc3cccc4ccncc34)nc(O[C@@H]3CCCNC3)nc12` the value was 0.05 to 0.5 µM. For `CNC(=O)c1ccccc1CNc1nc(O[C@@H]2CCCNC2)nc2c(C(C)C)cnn12` the value was 0.05 to 0.5 µM.

As to `CC(C)c1cnn2c(NCc3cc(F)ccc3-n3cccn3)nc(O[C@@H]3CCCNC3)nc12`, the IC50 is not above 0.05 µM. As to `CC(C)c1cnn2c(NCc3ccccc3OS(C)(=O)=O)nc(O[C@@H]3CCCNC3)nc12`, the IC50 fell in the range of 0.05 to 0.5 µM. For `CC(C)c1cnn2c(NCc3cccc4c3OCCCO4)nc(O[C@@H]3CCCNC3)nc12` the value was 0.05 to 0.5 µM; for `CC(C)c1cnn2c(NCc3ccccc3OC(F)F)nc(OC3CCN(C)CC3)nc12`, 0.05 to 0.5 µM; for `CC(C)c1cnn2c(NCc3ccccc3-n3cccn3)nc(N3CCC(N(C)C)CC3)nc12`, 0.05 to 0.5 µM. Under `CC(C)c1cnn2c(NCc3ccccc3C(F)(F)F)nc(OC3CCN(C)CC3)nc12` stands not above 0.05 µM; under `CC(C)c1cnn2c(NCc3ccc(F)cc3-n3cccn3)nc(O[C@@H]3CCCNC3)nc12`, not above 0.05 µM; under `CC(C)c1cnn2c(NCc3ccccc3Br)nc(O[C@@H]3CCCNC3)nc12`, 0.05 to 0.5 µM. As to `CC(C)c1cnn2c(NCc3ccccc3S(=O)(=O)N(C)C)nc(O[C@@H]3CCCNC3)nc12`, the IC50 was in the range of 0.05 to 0.5 µM. For `CC(C)c1cnn2c(NCc3ccccc3-n3cncn3)nc(OC3CCNCC3)nc12` the value was 0.05 to 0.5 µM; for `CC(C)c1cnn2c(NCc3ccccc3-n3cccn3)nc(S[C@@H]3CCCNC3)nc12`, 0.05 to 0.5 µM.

As to `CNC1CCN(c2nc(NCc3ccccc3-n3cccn3)n3ncc(C(C)C)c3n2)CC1`, the IC50 is 0.05 to 0.5 µM.

`CC(C)c1cnn2c(NCc3cccc4cc[n+]([O-])cc34)nc(O[C@@H]3CCCNC3)nc12` gave an IC50 of 0.05 to 0.5 µM. Under `CC(C)c1cnn2c(NCc3ccccc3-n3ccnc3)nc(O[C@@H]3CCCNC3)nc12` stands 0.05 to 0.5 µM; under `CC(C)c1cnn2c(NCc3ccccc3-n3cncn3)nc(OC3CCN(C)CC3)nc12`, 0.05 to 0.5 µM; under `CC(C)c1cnn2c(NCc3ccccc3-n3cccn3)nc(OC3C[C@H]4CNC[C@@H]34)nc12` (stereo partly specified), 0.05 to 0.5 µM. In turn, `CC(C)c1cnn2c(NCc3cccc4cccnc34)nc(O[C@@H]3CCCNC3)nc12` had an IC50 of 0.05 to 0.5 µM. Turning to `CC(C)c1cnn2c(NCc3ccccc3-n3cccn3)nc(O[C@@H]3CCCNC3)nc12`, the IC50 was not above 0.05 µM. In the case of `CC(C)c1cnn2c(NCc3ccccc3-n3cc(Cl)cn3)nc(O[C@@H]3CCCNC3)nc12`, the IC50 is 0.05 to 0.5 µM. The compound `CC(C)c1cnn2c(NCc3ccccc3-n3cccn3)nc(O[C@@H]3CCNC3)nc12` had an IC50 not above 0.05 µM.

The IC50 is the concentration that gives 50% inhibition. A low value points to higher potency.
